In US9879049B2, “Glycopeptide antibiotic analogs effective against vancomycin-resistant bacterial strains” (The Scripps Research Institute, priority 2011, dated 2018):
≈ marks a conversion by molar mass, not a printed value. Like-named read-outs stand apart in the source and are kept apart here. Blank lines part the entries; values can stand above or below the compound they belong to.

Key:
[1] = test system: E. faecalis (BM4166, VanA VRE); assay: MIC by broth microdilution, VanA VRE; type: cell-based; conditions: for MIC: Enterococcus faecalis, read-out: VanA MIC (minimum inhibitory conc.)
Description: E. faecalis (BM4166) was propagated and MIC's were determined in duplicate by the broth microdilution method according to standard microbiological practice. See: Clinical and Laboratory Standards Institute. Methods for Dilution Antimicrobial Susceptibility Tests for Bacteria That Grow Aerobically; Approved Standard, 7th ed.; CLSI document M07-A8; Clinical and Laboratory Standards Institute: Wayne, Pa., 2009. Cudic, M.; Condie, B. A.; Weiner, D. J.; Lysenko, E. S.; Xiang, Z. Q.; Insug, O.; Bulet, P.; Otvos, L., Jr.; Peptides 2002, 23, 271.
(§1) S. Aureus (ATCC 25923) and E. Faecalis (BM4166) were propagated and MICs were determined in duplicate by the broth microdilution method according to standard microbiological practice. (Clinical and Laboratory Standards Institute. Methods for Dilution Antimicrobial Susceptibility Tests for Bacteria That Grow Aerobically; Approved Standard, 7th ed.; CLSI document M07-A8; Clinical and Laboratory Standards Institute: Wayne, Pa., 2009.)

S. Aureus (ATCC 25923) = assay: MIC by broth microdilution, vancomycin-sensitive S. aureus; type: cell-based; conditions: Staphylococcus aureus, ATCC25923
Description: as §1

[2] = amidine group; cited from earlier work
N,N′-Ac2-Lys-D-Ala-D-Lac = assay: Titration binding assay (UV difference) with model D-Ala-D-Lac ligand; conditions: for ligand, Ka, 7, X = O: model ligand 7 (D-Ala-D-Lac), 0.02 M sodium citrate buffer pH 5.1
Description: Titration Binding Assays with Model D-Ala-D-Ala and D-Ala-D-Lac Ligands 2 and 4.
(§2) The binding constants for compounds 6 and 8 for association with the model ligands N,N′-Ac2-Lys-D-Ala-D-Ala (2) and N,N′-Ac2-Lys-D-Ala-D-Lac (4) were determined according to literature protocol.^30 UV difference measurements were carried out on a CARY 3E UV-Vis spectrometer. UV scans were run with a baseline correction that consisted of 0.02 M sodium citrate buffer (pH=5.1) and covered the range from 200 to 345 nm. A solution of 6 or 8 (7.7×10^−5M in 0.02 M sodium citrate buffer) was placed into a quartz UV cuvette (0.1 cm path length) and the UV spectrum recorded versus a reference cell containing 0.02 M sodium citrate buffer. UV spectra were recorded after each addition of a solution of N,N′-Ac2-Lys-D-Ala-D-Ala (2) or N,N′-Ac2-Lys-D-Ala-D-Lac (4) in 0.02 M sodium citrate buffer to each cell from 0.1 to 60.0 equivalents. The absorbance value at the λmax was recorded and the running change in absorbance, ΔAx equiv (Ainitial−Ax equiv), measured. The number of ligand equivalents was plotted versus ΔA to afford the ligand binding titration curve. The break point of this curve is the saturation point of the system and its xy coordinates were determined by establishing the intersection of the linear fits of the pre- and post-saturation curves. ΔAsaturation was calculated and employed to determine the concentration of free ligand in solution at each titration point. ΔA was plotted versus ΔA/free ligand concentration to give a Scatchard plot from which the binding constants were determined.
(§3) Titration Binding Assays with Model D-Ala-D-Ala and D-Ala-D-Lac Ligands 6 and 7.
(§4) The binding constants for all compounds for association with the model ligands N,N′-Ac2-Lys-D-Ala-D-Ala (6) and N,N′-Ac2-Lys-D-Ala-D-Lac (7) were determined according to literature protocol. UV difference experiments were carried out on a CARY 3E UV-Vis spectrometer. UV scans were run with a baseline correction that consisted of 0.02 M sodium citrate buffer (pH=5.1) and covered a range from 200 to 345 nm. A solution of the vancomycin aglycon derivative (7.7×10^−5 M in 0.02 M sodium citrate buffer) was placed into a quartz UV cuvette (0.1 cm path length) and the UV spectrum recorded versus a reference cell containing 0.02 M sodium citrate buffer. UV spectra were recorded after each addition of a solution of N,N′-Ac2-Lys-D-Ala-D-Ala (6) or N,N′-Ac2-Lys-D-Ala-D-Lac (7) in 0.02 M sodium citrate buffer to each cell from 0.1 to 60.0 equivalents. The absorbance value at the λmax was recorded and the running change in absorbance, ΔAx equiv (Ainitial−Ax equiv), measured. The number of ligand equivalents was plotted versus ΔA to afford the ligand binding titration curve. The break point of this curve is the saturation point of the system and its xy coordinates were determined by establishing the intersection of the linear fits of the pre and postsaturation curves. ΔAsaturation was calculated and employed to determine the concentration of free ligand in solution at each titration point. ΔA was plotted versus ΔA/free ligand concentration to give a Scatchard plot from which the binding constants were determined.

N,N′-Ac2-Lys-D-Ala-D-Ala = assay: Titration binding assay (UV difference) with model D-Ala-D-Ala ligand; conditions: for ligand, Ka, 6, X = NH: model ligand 6 (D-Ala-D-Ala), 0.02 M sodium citrate buffer pH 5.1; for Ka(6/7): ratio of Ka for ligand 6 (D-Ala-D-Ala) to ligand 7 (D-Ala-D-Lac)
Description: as §2, §3, §4

[3] = test system: sensitive bacterial strains; assay: Activity against sensitive bacterial strains; type: cell-based; conditions: read-out: MIC against sensitive bacterial strains
[4] = test system: substrate model 3 (X═CH2); conditions: substrate model 3 (X═CH2) versus model 2; cited from earlier work
[5] = test system: Vancomycin-resistant bacteria (VanA and VanB); conditions: resistant bacteria with D-Ala-D-Lac precursor; cited from earlier work
[6] = test system: D-Ala-D-Lac, substrate model 4 (X═O); conditions: cited from earlier work

MIC ([1]; E. faecalis BM4166, VanA VRE): > 40 µg/mL
MIC (S. Aureus (ATCC 25923)): 10 µg/mL (≈ 8.67 µM)
binding of D-Ala-D-Lac (N,N′-Ac2-Lys-D-Ala-D-Lac; result in words): failed to bind
binding of D-Ala-D-Ala versus D-Ala-D-Lac (N,N′-Ac2-Lys-D-Ala-D-Ala; D-Ala-D-Ala bound more effectively than D-Ala-D-Lac): ≥ 120 fold
affinity for D-Ala-D-Ala, fold less than parent amide 8 or amidine 10 (N,N′-Ac2-Lys-D-Ala-D-Ala; relative to 8 or 10): 20 fold
Compound: CN[C@H](CC(C)C)C(=O)N[C@H]1C(=O)N[C@@H](CC(N)=O)C(=O)N[C@H]2C(=NC#N)NC3C(=O)N[C@H](C(=O)N[C@H](CO)c4cc(O)cc(O)c4-c4cc3ccc4O)[C@H](O)c3ccc(c(Cl)c3)Oc3cc2cc(c3O)Oc2ccc(cc2Cl)[C@H]1O (single isomer, unassigned) [Compound 14]
pKa [2]: 1

Compound: CN[C@H](CC(C)C)C(=O)N[C@H]1C(=O)N[C@@H](CC(N)=O)C(=O)N[C@H]2C(=O)N[C@H]3C(=O)N[C@H](C(=O)N[C@H](C(=O)O)c4cc(O)cc(O)c4-c4cc3ccc4O)[C@H](O)c3ccc(c(Cl)c3)Oc3cc2cc(c3O)Oc2ccc(cc2Cl)[C@H]1O [Compound 2, vancomycin aglycone, reference compound]
MIC ([1]; VRE): 640 µg/mL (≈ 559 µM)
MIC [3]: 0.3 to 2 µg/mL (≈ 0.262 to 1.75 µM)
ligand, Ka, 7, X = O (N,N′-Ac2-Lys-D-Ala-D-Lac): 120 M⁻¹
ligand, Ka, 6, X = NH (N,N′-Ac2-Lys-D-Ala-D-Ala): 170000 M⁻¹
Ka(6/7) (N,N′-Ac2-Lys-D-Ala-D-Ala): 1400

Compound: CN[C@H](CC(C)C)C(=O)N[C@H]1C(=O)N[C@@H](CC(N)=O)C(=O)N[C@H]2C(=N)NC3C(=O)N[C@H](C(=O)N[C@H](C(=O)O)c4cc(O)cc(O)c4-c4cc3ccc4O)[C@H](O)c3ccc(c(Cl)c3)Oc3cc2cc(c3O)Oc2ccc(cc2Cl)[C@H]1O [Compound 4, [Ψ[C(═NH)NH]Tpg^4]Vancomycin Aglycon]
MIC ([1]; VRE): 0.31 µg/mL (≈ 0.271 µM)
pKa [2]: 12.5
ligand, Ka, 7, X = O (N,N′-Ac2-Lys-D-Ala-D-Lac): 69000 M⁻¹
ligand, Ka, 6, X = NH (N,N′-Ac2-Lys-D-Ala-D-Ala): 73000 M⁻¹
Ka(6/7) (N,N′-Ac2-Lys-D-Ala-D-Ala): 1.05

Compound: CN[C@H](CC(C)C)C(=O)N[C@H]1C(=O)N[C@@H](CC(N)=O)C(=O)N[C@H]2C(=S)NC3C(=O)N[C@H](C(=O)N[C@H](C(=O)O)c4cc(O)cc(O)c4-c4cc3ccc4O)[C@H](O)c3ccc(c(Cl)c3)Oc3cc2cc(c3O)Oc2ccc(cc2Cl)[C@H]1O [Compound 5, [Ψ[C(═S)NH]Tpg^4]Vancomycin Aglycon]
MIC ([1]; VRE): > 640 µg/mL
antimicrobial activity ([1]; result in words, FIG. 3): lacked any antimicrobial activity
ligand, Ka, 7, X = O (N,N′-Ac2-Lys-D-Ala-D-Lac): 11 M⁻¹
binding to D-Ala-D-Lac (N,N′-Ac2-Lys-D-Ala-D-Lac; result in words, FIG. 3): completely disrupt binding
ligand, Ka, 6, X = NH (N,N′-Ac2-Lys-D-Ala-D-Ala): 170 M⁻¹
binding to D-Ala-D-Ala (N,N′-Ac2-Lys-D-Ala-D-Ala; result in words, FIG. 3): completely disrupt binding

MIC ([1]; E. faecalis BM4166, VanA VRE): 20 µg/mL (≈ 17.5 µM)
times less effective than parent amidine 10 at binding D-Ala-D-Lac ligand 7 (N,N′-Ac2-Lys-D-Ala-D-Lac; relative to 10): 30 to 50 times
relative affinity for ligands 6 and 7 (N,N′-Ac2-Lys-D-Ala-D-Ala; D-Ala-D-Ala versus D-Ala-D-Lac, result in words): near equal affinities
times less effective than parent amidine 10 at binding D-Ala-D-Ala ligand 6 (N,N′-Ac2-Lys-D-Ala-D-Ala; relative to 10): 30 to 50 times
Compound: CN=C1NC2C(=O)N[C@H](C(=O)N[C@H](CO)c3cc(O)cc(O)c3-c3cc2ccc3O)[C@H](O)c2ccc(c(Cl)c2)Oc2cc3cc(c2O)Oc2ccc(cc2Cl)[C@@H](O)[C@@H](NC(=O)[C@@H](CC(C)C)NC)C(=O)N[C@@H](CC(N)=O)C(=O)N[C@@H]13 [Compound 11]
fold less potent than 10 against VanA VRE ([1]; relative to parent amidine 10): 60 fold

Compound: CN[C@H](CC(C)C)C(=O)N[C@H]1C(=O)N[C@@H](CC(N)=O)C(=O)N[C@H]2C(=O)N[C@H]3C(=O)N[C@H](C(=O)N[C@H](C(=O)O)c4cc(O)cc(O)c4-c4cc3ccc4O)[C@H](O)c3ccc(c(Cl)c3)Oc3cc2cc(c3O[C@@H]2O[C@H](CO)[C@@H](O)[C@H](O)[C@H]2O[C@H]2C[C@](C)(N)[C@H](O)[C@H](C)O2)Oc2ccc(cc2Cl)[C@H]1O [vancomycin]
free energy loss of binding [4]: about 1.5 kcal/mole
loss in antimicrobial activity [5]: 1000 fold
loss in Gibbs free energy of binding ΔG° ([6]; 25° C., substrate model 4 (X═O) versus model 2): 3.1 kcal/mol
reduction of binding affinity for the altered ligand D-Ala-D-Lac ([6]; versus D-Ala-D-Ala): 1000 fold

Compound: [Ψ-[CH2NH]Tpg^4]vancomycin aglycon [Compound 3, reference compound]
VanA MIC (minimum inhibitory conc.) ([1]; E. faecalis BM4166, VanA VRE): 31 µg/mL
ligand, Ka, 7, X = O (N,N′-Ac2-Lys-D-Ala-D-Lac): 5200 M⁻¹
ligand, Ka, 6, X = NH (N,N′-Ac2-Lys-D-Ala-D-Ala): 4800 M⁻¹
Ka(6/7) (N,N′-Ac2-Lys-D-Ala-D-Ala): 0.9
